Measurements reported in patent US20110183978A1, “Phenylpyri(mi)dinylazoles” (Bayer CropScience AG, priority 2009, published 2011).
Read-outs that look alike come from different tables or passages of the source.

Tests used:
Peronospora parasitica = assay: Example A: in vivo test on Peronospora parasitica (downy mildew on white cabbage); conditions: Hyaloperonospora parasitica, 120 h, cabbage plants sprayed 24 hours before inoculation, scored after 5 days, read-out: % Wirkungsgrad
How it was run: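 Cabbage plants (Eminence) at cotyledon stage sprayed with aqueous compound suspension (acetone/Tween/DMSO, diluted with water), then inoculated 24 h later with P. parasitica spores at 50,000 spores/ml. After 5 days in moist atmosphere at ca. 20 °C, disease scored against untreated sprayed controls.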

Pyrenophora teres = assay: Example E: in vivo test on Pyrenophora teres (barley net blotch disease); conditions: Pyrenophora teres, 288 h, barley plants sprayed 24 hours before inoculation, scored after 12 days, read-out: % Wirkungsgrad
Experimental: In Vivo Test on Pyrenophora Teres (Barley Net Blotch Disease) An aqueous suspension of the active substance was prepared by homogenization of a mixture of acetone/Tween/dimethyl sulphoxide and subsequent dilution with water to the desired concentration. Barley plants (variety: Plaisant) are sown in cultivation dishes on a peat-pozzolanic earth substrate (50/50) at 12° C. and sprayed at the first-leaf stage (10 cm size) with the aqueous suspension described above. As a control, plants are sprayed with an aqueous solution with no active substance. After 24 hours the plants are inoculated by spraying with an aqueous suspension of Pyrenophora teres spores (12,000 spores per ml). The spores are derived from a 12 day-old culture. […] After 12 days they are scored in comparison with the control plants.

Fusarium proliferatum = assay: Example I: production of fumonisin FB1 by Fusarium proliferatum (microtitre plates); type: cell-based; conditions: 120 h
Fusarium graminearum = assay: microbe, parasite or virus in culture; type: cell-based
Plasmopara viticola = assay: Example N: in vivo test on Plasmopara viticola (downy mildew, vine/protective); conditions: 144 h, vine, protective, assessment 6 days after inoculation, read-out: % Wirkungsgrad
How it was run: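 Protective test: young vine plants were sprayed with active substance diluted in water from a solvent/alkylaryl polyglycol ether emulsifier concentrate at the stated dosage, then inoculated with P. viticola. Plants were moistened and kept 1 day in an incubation cabin, and assessed 6 days after inoculation.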

Venturia inaequalis = assay: Example O: in vivo test on Venturia inaequalis (apple scab/protective); conditions: 240 h, protective, assessment 10 days after inoculation, read-out: % Wirkungsgrad
How it was run: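 Protective test: active substance mixed with solvent and alkylaryl polyglycol ether emulsifier, diluted with water, and sprayed on young plants at the stated dosage before Venturia inaequalis inoculation. Scab assessed 10 days after inoculation.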

Botrytis cinerea = assay: Example P: in vivo test on Botrytis cinerea (gray mould on bean/protective); conditions: 48 h, bean, protective, 250 ppm active substance, assessed 2 days after inoculation, read-out: % Wirkungsgrad (activity level)
How it was run: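 Protective test: young bean plants sprayed with the active substance preparation (emulsifier-based concentrate diluted in water) at the stated dosage. Once dry, each leaf received 2 agar pieces bearing Botrytis cinerea. Infection blotch size assessed 2 days after inoculation.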

Septoria tritici = assay: Example R: in vivo test on Septoria tritici (leaf blotch in wheat/protective); conditions: Zymoseptoria tritici, 504 h, wheat, protective, 1000 ppm active substance, assessed 21 days after inoculation, read-out: % Wirkungsgrad (activity level)
How it was run: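 Protective test: young wheat plants sprayed with compound in N,N-dimethylacetamide/alkylaryl polyglycol ether emulsifier diluted in water, dried, then inoculated with Septoria tritici spore suspension. Disease assessed 21 days after inoculation.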

[1] = test system: Fusarium nivale (var. majus); assay: whole plant or invertebrate; type: in vivo; conditions: Microdochium nivale, in Triticum aestivum, 120 h, read-out: % Wirkungsgrad (activity level)
Pyricularia oryzae = assay: whole plant or invertebrate; type: in vivo; conditions: 120 h, read-out: % Activity level
physchem = conditions: LogPA (logP of the stated pure compound or, in a mixture, of the main isomer, 1-substituted 3-aryl-1H-pyrazole)
Alternaria brassicae = assay: Example C: in vivo test on Alternaria brassicae (leaf spot disease on radishes); conditions: 500 ppm; radish plants sprayed 24 hours before inoculation; scored after 6-7 days
Experimental: In Vivo Test on Alternaria Brassicae (Leaf Spot Disease on Radishes) An aqueous suspension of the active substance was prepared by homogenization of a mixture of acetone/Tween/dimethyl sulphoxide and subsequent dilution with water to the desired concentration. Radish plants (variety: Pernot) are sown in cultivation dishes on a peat-pozzolanic earth substrate (50/50) at 18-20° C. and sprayed at the cotyledon stage with the aqueous suspension described above. As a control, plants are sprayed with an aqueous solution with no active substance. After 24 hours, the plants are inoculated by spraying with an aqueous suspension of Alternaria brassicae spores (40,000 spores per ml). The spores are derived from a 12 to 13 day-old culture. The inoculated radish plants are incubated for 6-7 days at ca. 18° C. in a humid atmosphere. After 6-7 days they are scored in comparison with the control plants.

[2] = Fusarium proliferatum growth, OD 620, 5 days, read-out: % Inhibition des Pilzwachstums bei 50 μM
[3] = Fusarium proliferatum, 5 days at 20° C., HPLC-MS/MS, read-out: % Inhibition der FB1 produktion bei 50 μM
[4] = 72 h, read-out: % Inhibition des Pilzwachstums bei 50 μM
[5] = 168 h, read-out: % Inhibition der DON/AcDON produktion bei 50 μM

SMILES | pest or weed control at 500 ppm (Peronospora parasitica) [%] | pest or weed control at 500 ppm (Pyrenophora teres) [%] | inhibition at 50 µM (Fusarium proliferatum; [2]) [%] | inhibition at 50 µM (Fusarium proliferatum; [3]) [%] | inhibition at 50 µM (Fusarium graminearum; [4]) [%] | inhibition at 50 µM (Fusarium graminearum; [5]) [%] | pest or weed control at 100 ppm (Plasmopara viticola) [%] | pest or weed control at 100 ppm (Venturia inaequalis) [%] | pest or weed control at 250 ppm (Botrytis cinerea) [%] | pest or weed control at 1000 ppm (Septoria tritici) [%] | pest or weed control at 1000 ppm [1] [%] | pest or weed control at 250 ppm (Pyricularia oryzae) [%] | chromatographic logP (physchem) | % Activity level (Alternaria brassicae) [%]
CCC(=O)Nc1cc(-c2cn(C(C)C)nc2-c2ccc(F)cc2)ccn1 [Compound 85] | 100 | 75 | 95 | 100 | 100 | 99 | 94 | 88 | 100 | 100 | 100 | 80 | 2.15 | –
CC(C)C(=O)Nc1cc(-c2cn(C(C)C)nc2-c2ccc(F)cc2)ccn1 [Compound 84] | 100 | – | 88 | 100 | 92 | 99 | 98 | 100 | 99 | 100 | 100 | 85 | 2.5 | 75
CC(C)n1cc(-c2ccnc(NC(=O)C3CC3)c2)c(-c2ccc(F)cc2)n1 [Compound 86] | 100 | 81 | 96 | 100 | 94 | 98 | 84 | 96 | 100 | 100 | 100 | 93 | 2.07 | 75
CC(C)Cn1cc(-c2ccncc2)c(-c2ccc(F)cc2)n1 [Compound 1] | 100 | 96 | – | – | – | – | 100 | 99 | 99 | 100 | 92 | 80 | 1.63 | 94
